Legend:
[1] = molecular target: T1, Adenosine receptor A1 (Homo sapiens, UniProt P30542); assay: Displacement of [3H]DPCPX from human recombinant adenosine A1 receptor expressed in HEK293T cells; type: cell-based, HEK-293T
T1 sequence (P30542 whole entry): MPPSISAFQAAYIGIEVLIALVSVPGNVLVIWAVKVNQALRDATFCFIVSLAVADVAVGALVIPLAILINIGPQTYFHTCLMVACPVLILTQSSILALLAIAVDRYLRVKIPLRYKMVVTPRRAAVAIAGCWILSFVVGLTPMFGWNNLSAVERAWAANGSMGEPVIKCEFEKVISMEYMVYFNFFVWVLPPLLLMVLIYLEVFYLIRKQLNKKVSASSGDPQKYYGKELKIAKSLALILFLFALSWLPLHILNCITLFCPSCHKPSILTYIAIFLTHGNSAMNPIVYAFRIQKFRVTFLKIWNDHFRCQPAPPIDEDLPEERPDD

[2] = molecular target: Adenosine receptor A2a (Homo sapiens, UniProt P29274); assay: biochemical
Description: Displacement of [3H]CGS21680 from human recombinant adenosine A2A receptor expressed in HEK293T cells

[3] = molecular target: T2, Adenosine receptor A3 (Homo sapiens, UniProt P0DMS8); assay: Displacement of [3H]NECA from human recombinant adenosine A3 receptor expressed in HEK293T cells; type: cell-based, HEK-293T
T2 sequence (P0DMS8 whole entry): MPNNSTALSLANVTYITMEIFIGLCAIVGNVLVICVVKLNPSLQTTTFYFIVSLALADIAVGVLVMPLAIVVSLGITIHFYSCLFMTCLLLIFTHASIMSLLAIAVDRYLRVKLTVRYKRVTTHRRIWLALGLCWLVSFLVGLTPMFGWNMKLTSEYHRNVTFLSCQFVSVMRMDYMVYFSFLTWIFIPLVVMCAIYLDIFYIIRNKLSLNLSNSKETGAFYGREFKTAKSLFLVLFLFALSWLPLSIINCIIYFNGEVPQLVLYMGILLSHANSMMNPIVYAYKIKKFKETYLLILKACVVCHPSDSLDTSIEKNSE

Chain of Adenosine receptor A2a (P29274 whole entry): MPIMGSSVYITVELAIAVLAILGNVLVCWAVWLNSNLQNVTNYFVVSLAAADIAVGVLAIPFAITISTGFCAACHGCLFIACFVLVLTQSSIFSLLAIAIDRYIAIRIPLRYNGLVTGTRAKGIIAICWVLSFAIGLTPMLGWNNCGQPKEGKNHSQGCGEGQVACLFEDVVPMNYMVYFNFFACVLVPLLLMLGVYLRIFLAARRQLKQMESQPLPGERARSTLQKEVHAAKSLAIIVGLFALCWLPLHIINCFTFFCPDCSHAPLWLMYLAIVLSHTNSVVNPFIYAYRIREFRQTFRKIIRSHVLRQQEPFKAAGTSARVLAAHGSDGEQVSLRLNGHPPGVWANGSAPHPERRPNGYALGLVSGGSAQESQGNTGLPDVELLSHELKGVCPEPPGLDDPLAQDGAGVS

Compound	Ki [1] [µM]	Ki [2] [µM]	Ki [3] [µM]
Cc1cc2[nH]c3cccnc3c2c(C)c1O	> 100	24.9	4.43
Cc1cc2[nH]c3cnccc3c2c(C)c1O	> 100	> 100	17.7
Cc1cc2[nH]c3c[n+](C)ccc3c2c(C)c1O	> 100	> 100	29.7

Now from value to compound:

Ki [1] [µM]	Ki [2] [µM]	Ki [3] [µM]	Compound
> 100	80.6	43.4	Cc1cc2c(c(C)c1O)c1ccncc1n2C
> 100	44.1	13.3	Cc1cc2c(c(C)c1O)c1ncccc1n2C
> 100	> 100	> 100	Cc1cc2c(c(C)c1O)c1cc[n+](C)cc1n2C

Reference: ChEMBL document CHEMBL1157148, “Synthesis of eudistomin D analogues and its effects on adenosine receptors” (Bioorg Med Chem, 2008)
